For data set [1], the system named is SKBR3 tumor cells (HER2+). Briefly: In vitro cytotoxic activity screening, CTG assay, SKBR3. It counts as cell-based. Here is the method:
(§1) In this experiment, the ATP content was determined using CTG to reflect the survival condition of the tumor cells. […] The killing effect of the toxin molecule was then assayed according to this condition.
(§2) According to the purpose of the experiment, two disease models of breast cancer and NSCLC were selected, and three cell strains of SKBR3 tumor cells (HER2+, ATCC, Cat #HTB-30), MDA-MB-468 (HER2-, ATCC, Cat #HTB-132) and A549 (human non-small cell lung cancer cells, ATCC, Cat #CCL-185) were selected for screening.
(§3) The cells were counted, and 4.3×10^5, 7.2×10^5 and 11.5×10^5 cells were each added to a culture solution to give a final volume of 26 mL. 180 μL of cell suspension was added to each well in columns 2 to 11 of a 96-well plate (Corning, Cat #3903) to give cell densities of 3K, 5K and 8K per well. Wells in column 12 were each filled with 200 μL of culture solution and the remaining wells were each filled with PBS. The SKBR3 and MDA-MB-468 cells were subjected to the same operations described above. […] 2 mM stock solution (stock solution diluted 10-fold in DMSO) was prepared in column 1 of drug preparation plate 1, and then 10-fold gradient dilution in DMSO was performed through column 10, and the wells in column 11 were filled with DMSO. […] The absorption value was read using a microplate reader and IC50 was calculated.

For data set [2], the system named is MDA-MB-468 (HER2-). Description: In vitro cytotoxic activity screening, CTG assay, MDA-MB-468. The format is cell-based. Here is the method:
as §1, §2, §3

The subject of data set [3] is A549 (human non-small cell lung cancer cells). Briefly: In vitro cytotoxic activity screening, CTG assay, A549. It counts as cell-based. As to the method: as §1, §2, §3
Data set [4] in a line: Pharmacokinetic experiment for beagles, intravenous administration. The note with it: 0.5 mg/kg. As to the method:
(§4) Plasma samples were stored in a refrigerator at −80° C. prior to testing.
as §4

Structures are written as SMILES.

As for `C=C1C[C@@H]2CC[C@@]34C[C@H]5O[C@H]6[C@@H](O3)[C@H]3O[C@H](CC[C@@H]3O[C@H]6[C@H]5O4)CC(=O)C[C@@H]3[C@@H](OC)[C@@H](C[C@@H](CN)OC)O[C@H]3C[C@H]3O[C@@H](CC[C@@H]1O2)C[C@@H](C)C3=C` [Compound 1], the IC50 in data set [1] (Homo sapiens, SK-BR-3, read-out: IC50 (nM) SKBR3) is 0.205 nM; in data set [2] (Homo sapiens, MDA-MB-468, read-out: IC50 (nM) MDA-MB-468), 0.183 nM; in data set [3] (Homo sapiens, A549, read-out: IC50 (nM) A549), 0.515 nM. Also, in data set [1] (SKBR3, CTG), the “Maximum inhibition rate (%) SKBR3” value is reported as 96.87%. Further, the “Maximum inhibition rate (%) MDA-MB-468” value in data set [2] (MDA-MB-468, CTG) came to 88.01%. The “Maximum inhibition rate (%) A549” value in data set [3] (A549, CTG) was determined as 81.34%. Besides, in data set [4], the “Plasma concentration C5 min” value was 82.1 ng/mL.

The term IC50 denotes the concentration needed to halve the response being measured.

These data come from US20240382607A1 (priority 2021, published 2024).
